Drawing on patent publication US20020103398A1, “2-Amino-2-alky-4 heptenoic and heptynoic acid derivatives useful as nitric oxide synthase inhibitors” (priority 2000, published 2002), this text covers IC50 for one molecule.

Structures can show the parent of a compound that is named as a salt.

What all share (assay type): biochemical
In assay [1] the target is T1, Human inducible NOS (hiNOS) (Homo sapiens, UniProt P35228).
T1 construct: made in house; host or cells: Sf9 insect cells, baculovirus vector
In words: Citrulline assay for nitric oxide synthase (hiNOS). Conditions: recombinant enzyme from Sf9 cells; 30 μM L-arginine; 37° C., 15 minutes. The source says:
(§1) Nitric oxide synthase (NOS) activity can be measured by monitoring the conversion of L-[2,3-^3H]-arginine to L-[2,3-^3H]-citrulline (Bredt and Snyder, Proc. Natl. Acad. Sci. U.S.A., 87, 682-685, 1990 and Moore et al, J. Med. Chem. 39, 669-672, 1996). Human inducible NOS (hiNOS), human endothelial constitutive NOS (hecNOS) and human neuronal constitutive NOS (hncNOS) are each cloned from RNA extracted from human tissue. The cDNA for human inducible NOS (hiNOS) is isolated from a λcDNA library made from RNA extracted from a colon sample from a patient with ulcerative colitis. The cDNA for human endothelial constitutive NOS (hecNOS) is isolated from a λcDNA library made from RNA extracted from human umbilical vein endothelial cells (HUVEC) and the cDNA for human neuronal constitutive NOS (hncNOS) is isolated from a λcDNA library made from RNA extracted from human cerebellum obtained from a cadaver. […] After mixing the resin is allowed to settle and L-[2,3-^3H]-Citrulline formation is determined by counting aliquots of the supernatant with a liquid scintillation counter. IC50 values can be determined by testing each compound at several concentrations. […]

The target in assay [2] is T2, human endothelial constitutive NOS (hecNOS) (Homo sapiens, UniProt P29474).
T2 construct: made in house; host or cells: Sf9 insect cells, baculovirus vector
In words: Citrulline assay for nitric oxide synthase (hecNOS). Conditions: recombinant enzyme from Sf9 cells; 30 μM L-arginine; calmodulin 40-100 nM; 37° C., 15 minutes.
Description: as §1

The target of assay [3] is T3, human neuronal constitutive NOS (hncNOS) (Homo sapiens, UniProt P29475).
T3 construct: made in house; host or cells: Sf9 insect cells, baculovirus vector
In words: Citrulline assay for nitric oxide synthase (hncNOS). Conditions: recombinant enzyme from Sf9 cells; 30 μM L-arginine; calmodulin 40-100 nM; 37° C., 15 minutes.
Description: as §1

T3 sequence (P29475 whole entry): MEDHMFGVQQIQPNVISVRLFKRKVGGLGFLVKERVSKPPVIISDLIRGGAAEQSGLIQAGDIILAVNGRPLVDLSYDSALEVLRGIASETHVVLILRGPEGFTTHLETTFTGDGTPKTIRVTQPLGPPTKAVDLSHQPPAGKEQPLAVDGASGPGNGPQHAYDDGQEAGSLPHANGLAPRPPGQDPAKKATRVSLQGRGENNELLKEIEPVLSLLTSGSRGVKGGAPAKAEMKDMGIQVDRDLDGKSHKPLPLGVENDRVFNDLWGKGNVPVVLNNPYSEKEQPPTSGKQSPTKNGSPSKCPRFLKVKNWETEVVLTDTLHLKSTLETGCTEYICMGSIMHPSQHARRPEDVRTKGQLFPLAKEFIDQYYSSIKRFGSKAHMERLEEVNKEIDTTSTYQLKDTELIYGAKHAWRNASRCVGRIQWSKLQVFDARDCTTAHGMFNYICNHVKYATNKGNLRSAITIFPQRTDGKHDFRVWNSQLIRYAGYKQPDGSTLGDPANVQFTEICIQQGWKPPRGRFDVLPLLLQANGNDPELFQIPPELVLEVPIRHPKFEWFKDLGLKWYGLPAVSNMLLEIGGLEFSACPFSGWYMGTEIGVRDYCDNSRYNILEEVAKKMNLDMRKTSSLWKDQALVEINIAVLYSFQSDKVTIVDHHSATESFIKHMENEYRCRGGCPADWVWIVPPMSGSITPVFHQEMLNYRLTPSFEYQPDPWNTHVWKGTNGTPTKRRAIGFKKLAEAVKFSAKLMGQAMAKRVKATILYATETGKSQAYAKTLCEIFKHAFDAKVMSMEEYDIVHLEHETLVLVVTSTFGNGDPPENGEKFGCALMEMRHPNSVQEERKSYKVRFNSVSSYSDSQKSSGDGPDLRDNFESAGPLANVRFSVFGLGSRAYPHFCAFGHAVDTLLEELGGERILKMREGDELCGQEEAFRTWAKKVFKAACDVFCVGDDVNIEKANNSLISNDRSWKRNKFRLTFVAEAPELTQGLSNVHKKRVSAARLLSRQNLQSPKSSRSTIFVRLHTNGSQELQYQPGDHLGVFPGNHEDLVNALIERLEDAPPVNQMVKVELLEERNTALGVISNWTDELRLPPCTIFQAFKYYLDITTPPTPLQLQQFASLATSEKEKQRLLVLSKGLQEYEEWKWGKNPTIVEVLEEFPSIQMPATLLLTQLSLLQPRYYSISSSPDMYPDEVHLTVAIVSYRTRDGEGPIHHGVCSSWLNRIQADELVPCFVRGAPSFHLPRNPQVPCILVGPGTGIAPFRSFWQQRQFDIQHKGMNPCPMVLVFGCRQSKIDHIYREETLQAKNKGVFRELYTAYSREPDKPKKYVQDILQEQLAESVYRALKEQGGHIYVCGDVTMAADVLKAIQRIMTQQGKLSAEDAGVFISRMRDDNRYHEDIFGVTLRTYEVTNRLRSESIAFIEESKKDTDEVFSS
T1 sequence (P35228 whole entry): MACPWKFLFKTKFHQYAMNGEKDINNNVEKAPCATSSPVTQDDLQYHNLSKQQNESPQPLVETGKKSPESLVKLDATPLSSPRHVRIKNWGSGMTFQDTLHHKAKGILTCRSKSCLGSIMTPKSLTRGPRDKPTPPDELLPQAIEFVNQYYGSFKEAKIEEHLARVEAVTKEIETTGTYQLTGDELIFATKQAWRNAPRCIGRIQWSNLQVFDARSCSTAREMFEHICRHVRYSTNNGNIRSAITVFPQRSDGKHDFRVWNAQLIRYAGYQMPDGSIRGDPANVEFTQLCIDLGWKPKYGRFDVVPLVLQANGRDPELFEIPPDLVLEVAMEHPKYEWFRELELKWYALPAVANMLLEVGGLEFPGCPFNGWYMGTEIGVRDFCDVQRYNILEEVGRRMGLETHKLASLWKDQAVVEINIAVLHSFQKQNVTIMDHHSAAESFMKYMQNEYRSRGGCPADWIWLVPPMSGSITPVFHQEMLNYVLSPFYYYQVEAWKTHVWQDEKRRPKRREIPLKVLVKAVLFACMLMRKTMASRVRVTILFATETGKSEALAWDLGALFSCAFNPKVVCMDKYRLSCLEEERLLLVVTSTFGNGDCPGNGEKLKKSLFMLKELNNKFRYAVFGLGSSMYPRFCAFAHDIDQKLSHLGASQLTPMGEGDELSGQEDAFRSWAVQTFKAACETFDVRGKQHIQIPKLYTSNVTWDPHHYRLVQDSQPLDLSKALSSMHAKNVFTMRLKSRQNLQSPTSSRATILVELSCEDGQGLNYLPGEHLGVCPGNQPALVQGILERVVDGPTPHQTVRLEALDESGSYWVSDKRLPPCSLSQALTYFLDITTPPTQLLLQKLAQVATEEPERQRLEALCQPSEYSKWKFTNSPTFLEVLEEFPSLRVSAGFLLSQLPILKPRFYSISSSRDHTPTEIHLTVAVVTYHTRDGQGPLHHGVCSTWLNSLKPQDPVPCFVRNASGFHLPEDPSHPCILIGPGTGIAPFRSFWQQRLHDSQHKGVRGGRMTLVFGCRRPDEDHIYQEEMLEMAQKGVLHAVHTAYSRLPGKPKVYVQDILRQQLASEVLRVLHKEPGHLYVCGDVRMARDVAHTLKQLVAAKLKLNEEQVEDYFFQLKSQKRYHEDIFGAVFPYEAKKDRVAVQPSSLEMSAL
T2 sequence (P29474 2-1203): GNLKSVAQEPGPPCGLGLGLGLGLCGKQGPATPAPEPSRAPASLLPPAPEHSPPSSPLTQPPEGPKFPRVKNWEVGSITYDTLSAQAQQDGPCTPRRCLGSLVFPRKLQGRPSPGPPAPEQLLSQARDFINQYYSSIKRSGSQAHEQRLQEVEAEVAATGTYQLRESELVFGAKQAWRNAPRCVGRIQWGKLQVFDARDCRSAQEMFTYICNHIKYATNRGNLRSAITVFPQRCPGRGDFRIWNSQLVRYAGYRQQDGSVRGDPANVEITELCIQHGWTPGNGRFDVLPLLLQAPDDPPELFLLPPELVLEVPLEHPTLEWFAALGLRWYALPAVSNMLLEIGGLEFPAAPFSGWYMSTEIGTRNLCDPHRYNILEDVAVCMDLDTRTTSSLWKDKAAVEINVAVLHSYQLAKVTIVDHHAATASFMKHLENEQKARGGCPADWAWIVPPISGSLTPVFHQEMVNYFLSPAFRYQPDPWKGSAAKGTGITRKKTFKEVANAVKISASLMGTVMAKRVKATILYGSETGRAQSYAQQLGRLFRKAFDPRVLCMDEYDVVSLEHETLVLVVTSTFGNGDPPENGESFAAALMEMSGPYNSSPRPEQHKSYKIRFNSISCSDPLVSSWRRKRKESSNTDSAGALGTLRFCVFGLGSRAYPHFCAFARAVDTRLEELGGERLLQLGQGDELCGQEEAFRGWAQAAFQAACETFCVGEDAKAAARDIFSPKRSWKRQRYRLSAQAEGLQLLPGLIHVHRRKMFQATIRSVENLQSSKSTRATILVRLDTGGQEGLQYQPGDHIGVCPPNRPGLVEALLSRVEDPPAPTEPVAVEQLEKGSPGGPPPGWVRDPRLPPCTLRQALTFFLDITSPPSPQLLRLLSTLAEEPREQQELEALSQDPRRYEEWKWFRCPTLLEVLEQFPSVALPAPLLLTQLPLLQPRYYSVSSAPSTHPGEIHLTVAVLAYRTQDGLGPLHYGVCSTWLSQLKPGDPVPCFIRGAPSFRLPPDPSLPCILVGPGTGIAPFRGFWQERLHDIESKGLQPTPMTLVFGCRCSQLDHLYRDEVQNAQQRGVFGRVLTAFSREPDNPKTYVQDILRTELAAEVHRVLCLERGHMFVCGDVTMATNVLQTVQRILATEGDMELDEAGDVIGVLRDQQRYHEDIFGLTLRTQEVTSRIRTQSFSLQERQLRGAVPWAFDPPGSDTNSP

Regarding `CC(=N)NCC/C=C\CC(C)(N)C(=O)O` (racemic) [Example 1, (2R/S,4Z)-2-amino-2-methyl-7-[(1-iminoethyl)amino]-4-heptenoic Acid, Dihydrochloride], the IC50 in assay [1] is 34 µM; in assay [2], 386 µM; in assay [3], 122 µM.
